The source of these data is ChEMBL document CHEMBL3217638, “Synthetic modulators of the retinoic acid receptor-related orphan receptors” (Medchemcomm, 2013).

The target of assay [1] is T1, Estrogen-related receptor gamma (Homo sapiens, UniProt P62508).
T1 sequence (P62508 whole entry): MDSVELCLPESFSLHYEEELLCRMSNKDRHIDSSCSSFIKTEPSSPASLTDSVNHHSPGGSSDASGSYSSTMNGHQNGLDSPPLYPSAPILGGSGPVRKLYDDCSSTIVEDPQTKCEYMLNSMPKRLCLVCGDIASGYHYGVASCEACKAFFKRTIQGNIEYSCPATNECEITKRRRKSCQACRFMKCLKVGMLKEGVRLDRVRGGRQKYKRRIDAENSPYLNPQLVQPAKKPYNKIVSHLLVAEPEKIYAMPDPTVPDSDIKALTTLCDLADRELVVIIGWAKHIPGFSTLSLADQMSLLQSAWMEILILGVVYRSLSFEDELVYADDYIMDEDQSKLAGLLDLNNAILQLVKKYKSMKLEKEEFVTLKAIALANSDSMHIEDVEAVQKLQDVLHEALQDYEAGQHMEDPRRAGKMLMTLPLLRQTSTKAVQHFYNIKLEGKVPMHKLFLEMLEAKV
In words: Binding affinity to human ERR gamma.

Assay [2] concerns the target T2, Nuclear receptor ROR-gamma (Homo sapiens, UniProt P51449).
T2 sequence (P51449 whole entry): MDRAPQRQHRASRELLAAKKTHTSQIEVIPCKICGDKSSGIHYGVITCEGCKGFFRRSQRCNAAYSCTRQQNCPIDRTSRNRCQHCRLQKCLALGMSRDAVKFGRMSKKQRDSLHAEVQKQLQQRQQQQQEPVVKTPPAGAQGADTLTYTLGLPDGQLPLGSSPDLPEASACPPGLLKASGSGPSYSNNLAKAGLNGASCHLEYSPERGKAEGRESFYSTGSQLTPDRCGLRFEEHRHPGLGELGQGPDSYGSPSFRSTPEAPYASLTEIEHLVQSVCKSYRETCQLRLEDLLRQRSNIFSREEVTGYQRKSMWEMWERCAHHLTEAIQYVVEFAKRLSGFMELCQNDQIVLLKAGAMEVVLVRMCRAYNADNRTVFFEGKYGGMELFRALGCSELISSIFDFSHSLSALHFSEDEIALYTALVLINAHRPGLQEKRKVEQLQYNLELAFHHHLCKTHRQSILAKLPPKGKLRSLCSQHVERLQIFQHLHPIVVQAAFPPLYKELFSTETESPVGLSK
The experiment in a line: Displacement of fluorescein-labeled 25-hydroxycholesterol from human N-terminal 6xHis-tagged ROR gamma LBD (residues 262 to 518) expressed in Escherichia coli BL21-CodonPlus(DE3)-RIL cells by fluorescence polarization assay. A general note: In fluorescence polarisation assays a small probe gives low polarisation when free and higher when bound to something large.

The structures appear in SMILES notation. pIC50, pKd: −log10 of the molar value.

The term pKd denotes −log10 of the Kd, conventionally taken in molar units. On to `CC(C)(c1ccc(O)cc1)c1ccc(O)cc1` [BISPHENOL A], for which the pKd in assay [1] is 8.26.

As usually defined, the pIC50 is −log10 of the IC50, conventionally taken in molar units. In the case of `C[C@H]1O[C@@H](O[C@H]2[C@@H](O)C[C@H](O[C@H]3[C@@H](O)C[C@H](O[C@H]4CC[C@@]5(C)[C@H](CC[C@@H]6[C@@H]5C[C@@H](O)[C@]5(C)[C@@H](C7=CC(=O)OC7)CC[C@]65O)C4)O[C@@H]3C)O[C@@H]2C)C[C@H](O)[C@@H]1O` [DIGOXIN], the pIC50 in assay [2] is 5.40.
